According to patent publication US20210189444A1, “METHOD OF PURIFYING CANNABINOIDS FROM YEAST FERMENTATION BROTH” (Demetrix, Inc., priority 2019, published 2021):

Test: solubility of CBGA and CBG in water as a function of pH (solubility curves, FIG. 4)

With `CCCCCc1cc(O)c(C/C=C(\C)CCC=C(C)C)c(O)c1C(=O)O` [CBGA, cannabigerolic acid] the “solubility in aqueous phase” value (pH 11.5 (25% KOH), water:IPM 4:1) was “soluble” and the solubility in water (pH <2) was “insoluble”.
